Experiments:
P-glycoprotein = P-glycoprotein (Sus scrofa, UniProt K7GMM7); details: pig
Description: (§1) The animals (pig, Yorkshire Iandrace, 37.5 kg, n=2) were scanned under terminal aneasthesia (ketamine induced isoflurane aneasthesia) on different days. For both animals an arterial cannula was inserted in one of the femoral arteries.

[1] = Rate of metabolism of [^11C]loperamide (arterial blood sampling) in pig
Description: as §1

Sequence of P-glycoprotein (K7GMM7 1-1248): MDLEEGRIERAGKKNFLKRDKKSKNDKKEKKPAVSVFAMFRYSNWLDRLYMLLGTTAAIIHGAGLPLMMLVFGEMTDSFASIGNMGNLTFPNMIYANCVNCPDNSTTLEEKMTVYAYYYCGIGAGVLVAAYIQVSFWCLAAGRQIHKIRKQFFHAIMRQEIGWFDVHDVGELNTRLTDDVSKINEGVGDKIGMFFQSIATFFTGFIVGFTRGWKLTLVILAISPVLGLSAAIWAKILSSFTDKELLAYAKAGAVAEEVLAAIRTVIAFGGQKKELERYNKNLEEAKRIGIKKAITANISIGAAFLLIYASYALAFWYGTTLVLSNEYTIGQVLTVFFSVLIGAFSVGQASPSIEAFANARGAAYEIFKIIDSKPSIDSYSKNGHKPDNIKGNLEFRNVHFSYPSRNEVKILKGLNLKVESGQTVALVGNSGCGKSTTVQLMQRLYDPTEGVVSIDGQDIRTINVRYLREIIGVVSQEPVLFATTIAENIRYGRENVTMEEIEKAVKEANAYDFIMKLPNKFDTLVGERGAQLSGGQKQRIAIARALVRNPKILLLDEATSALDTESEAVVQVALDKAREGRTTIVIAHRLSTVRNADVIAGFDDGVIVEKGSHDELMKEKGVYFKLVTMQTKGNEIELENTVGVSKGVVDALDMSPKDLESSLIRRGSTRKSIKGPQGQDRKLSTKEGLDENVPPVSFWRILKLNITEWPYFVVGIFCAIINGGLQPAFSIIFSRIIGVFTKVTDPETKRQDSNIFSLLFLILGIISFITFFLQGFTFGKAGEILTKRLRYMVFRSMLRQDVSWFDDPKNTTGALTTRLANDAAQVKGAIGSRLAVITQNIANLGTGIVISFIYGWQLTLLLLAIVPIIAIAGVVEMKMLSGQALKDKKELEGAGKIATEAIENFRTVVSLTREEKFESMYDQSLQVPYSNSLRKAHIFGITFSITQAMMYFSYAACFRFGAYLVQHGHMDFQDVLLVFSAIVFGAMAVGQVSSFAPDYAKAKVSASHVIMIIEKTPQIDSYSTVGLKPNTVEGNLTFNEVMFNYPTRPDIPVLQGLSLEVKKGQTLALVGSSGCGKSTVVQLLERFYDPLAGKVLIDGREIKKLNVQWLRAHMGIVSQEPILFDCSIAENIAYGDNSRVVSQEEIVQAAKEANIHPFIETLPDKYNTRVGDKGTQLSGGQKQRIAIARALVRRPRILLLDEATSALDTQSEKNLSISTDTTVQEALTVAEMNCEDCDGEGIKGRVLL

## CN([11CH3])C(=O)C(CCN1CCC(O)(c2ccc(Cl)cc2)CC1)(c1ccccc1)c1ccccc1 [[^11C]loperamide, ^11C—N-methyl-(4-chlorophenyl)+hydroxy-N,N-dimethyl-alpha,alpha-diphenyl-1-piperidinebutyramide]
P-glycoprotein; at a dose of 40-50 mg/kg Cyclosporin A i.v. 30 min prior
  Maximum increase of CNS penetration for the brain as a whole: 7 fold
P-glycoprotein; i.v. 1 min bolus, baseline conditions, PET
  % injected dose/L (CNS penetration): below 1%
P-glycoprotein; i.v. various doses of cyclosporin A 30 min prior to injection
  radioactive signal in the brain as measured with PET scanning: dose dependent increase
[1]; at doses of CsA >10 mg/kg
  rate of metabolism: parent at 60 min post administration: approx. 80 % parent
[1]; without CsA >10 mg/kg (before decrease)
  rate of metabolism: parent at 60 min post administration: approx. 50 % parent

Reference: patent publication US20070041899A1, “Radiolabelled substrates” (priority 2003, published 2007)
